Test results: patent US20200261421A1, “HETEROCYCLIC COMPOUNDS AS HIV PROTEASE INHIBITORS” (Merck Sharp & Dohme Corp., priority 2016, published 2020)

Each compound was assayed against T1, wild-type HIV-1 protease (Human immunodeficiency virus type 1 group M subtype B, UniProt P04585) (assay: Assay for Inhibition of Microbial Expressed HIV Protease). Details: Escherichia coli expressed wild-type HIV-1 protease, peptide substrate cleavage; mean of at least two independent experiments.
T1 construct: Escherichia coli expressed wild-type HIV-1 protease protein; made in house; host or cells: Escherichia coli
Type: biochemical
Description: Inhibition of Escherichia coli expressed wild-type HIV-1 protease protein was carried out with a peptide substrate [Val-Ser-Gln-Asn-Wnaphtyl)Ala-Pro-Ile-Val]. The inhibitor compound was preincubated with HIV-1 protease enzyme in assay buffer (50 mM sodium acetate, pH 5.5, 100 mM NaCl, and 0.1% BSA) for 30 minutes at room temperature. Peptide substrate was added to 400 μM in a total volume of 20 μL containing 20 pM HIV-1 protease (final) after which the reaction was incubated for 1 hour at 30° C. The reaction was quenched by the addition of formic acid and HIV protease inhibitor indinavir to 0.012% and 150 nM final concentrations, respectively. Product formation was determined after separation of product and substrate on a ZORBAX Eclipse XDB-C18 column (Aligent Technologies, Santa Clara, Calif., USA) connected to an API 4000™ mass spectrometer (AB Sciex, Pte. Ltd., Concord Ontario, Canada) with multiple reaction monitoring (transitions were 644.5/428.9 and 615.4/422.2 (M1/M3) for product and indinavir respectively). The extent of inhibition of the reaction was determined from the peak area of the products. Analysis of the products, independently synthesized, provided quantitation standards and confirmation of the product composition. […] Ic50's refer to the 50% inhibition of the cleavage of a peptide substrate by hiv protease.
Data shown in the table reflects the mean of at least two independent experiments.

Q: N=C1NC(c2ccc(F)cc2)(c2ccc(F)cc2)C(=O)N1Cc1ccc(C(F)(F)F)c(C(=O)NCc2cnccn2)c1 [Example 4, 5-{[4,4-bis(4-fluorophenyl)-2-imino-5-oxoimidazolidin-1-yl]methyl}-N-(pyrazin-2-ylmethyl)-2-(trifluoromethyl)benzamide] was tested. Which IC50 did it give?
A: 30.9 nM

Q: CN(Cc1ccc(Cl)nc1)C(=O)c1cccc(CN2C(=N)NC(c3ccc(F)cc3)(c3ccc(F)cc3)C2=O)c1 [Example 18, 3-{[4,4-bis(4-fluorophenyl)-2-imino-5-oxoimidazolidin-1-yl]methyl}-N-[(6-chloropyridin-3-yl)methyl]-N-methylbenzamide] was tested. Which IC50 did it give?
A: 10.3 nM

Q: With CN(C)C(=O)c1cccc(CN2C(=N)NC(c3ccc(F)cc3)(c3cccc(Br)c3)C2=O)c1 (centres unmarked) [Example 53, 3-{[4-(3-bromophenyl)-4-(4-fluorophenyl)-2-imino-5-oxoimidazolidin-1-yl]methyl}-N,N-dimethylbenzamide] as the compound, how does the IC50 read?
A: 48.6 nM

Q: For CN(Cc1ccc(Cl)cc1)C(=O)c1cncc(CN2C(=N)NC(c3ccc(F)cc3)(c3ccc(F)cc3)C2=O)c1 [Example 81, 5-{[4,4-bis(4-fluorophenyl)-2-imino-5-oxoimidazolidin-1-yl]methyl}-N-(4-chlorobenzyl)-N-methylpyridine-3-carboxamide], which IC50 is on record?
A: 22.7 nM

Q: Which IC50 does the source give for C[C@H](c1ccc(F)cc1)N(C)C(=O)c1cccc(CN2C(=N)NC(c3ccc(F)cc3)(c3ccc(F)cc3)C2=O)c1 [Example 44, 3-{[4,4-bis(4-fluorophenyl)-2-imino-5-oxoimidazolidin-1-yl]methyl}-N-[(1R)-1-(4-fluorophenyl)ethyl]-N-methylbenzamide] here?
A: 29.2 nM

Q: How did the IC50 turn out when CC(C)CC1(c2ccccc2)NC(=N)N(Cc2cccc(C(=O)N(C)Cc3ccc(Cl)cc3)c2)C1=O (centres unmarked) [Example 25, N-(4-chlorobenzyl)-3-{[2-imino-4-(2-methylpropyl)-5-oxo-4-phenylimidazolidin-1-yl]methyl}-N-methylbenzamide] was run?
A: 13.8 nM

Q: Which IC50 does the source give for COc1ccccc1CN(C)C(=O)c1cccc(CN2C(=N)NC(c3ccc(F)cc3)(c3ccc(F)cc3)C2=O)c1 [Example 61, 3-{[4,4-bis(4-fluorophenyl)-2-imino-5-oxoimidazolidin-1-yl]methyl}-N-(2-methoxybenzyl)-N-methylbenzamide] here?
A: 76.7 nM

Q: How did the IC50 turn out when N#Cc1ccc(CNC(=O)c2cc(CN3C(=N)NC(c4ccccc4)(c4ccccc4)C3=O)ccc2Cl)cc1 [Example 74, 2-chloro-N-(4-cyanobenzyl)-5-[(2-imino-5-oxo-4,4-diphenylimidazolidin-1-yl)methyl]benzamide] was run?
A: 11.4 nM

Q: With CN(Cc1ccc(F)cc1)C(=O)c1csc(CN2C(=N)NC(c3ccccc3)(c3ccccc3)C2=O)n1 [Example 95, N-(4-fluorobenzyl)-2-[(2-imino-5-oxo-4,4-diphenylimidazolidin-1-yl)methyl]-N-methyl-1,3-thiazole-4-carboxamide] as the compound, how does the IC50 read?
A: 30 nM

Q: For CN(Cc1ccc(Cl)cc1)C(=O)c1cccc(CN2C(=N)NC(c3ccc(F)cc3)(c3cccc(C(N)=O)c3)C2=O)c1 (centres unmarked) [Example 19, 3-{[4-(3-carbamoylphenyl)-4-(4-fluorophenyl)-2-imino-5-oxoimidazolidin-1-yl]methyl}-N-(4-chlorobenzyl)-N-methylbenzamide], which IC50 is on record?
A: 11.6 nM

Q: CN(Cc1ccc(Cl)cn1)C(=O)c1cccc(CN2C(=N)NC(c3ccc(F)cc3)(c3ccc(F)cc3)C2=O)c1 [Example 21, 3-{[4,4-bis(4-fluorophenyl)-2-imino-5-oxoimidazolidin-1-yl]methyl}-N-[(5-chloropyridin-2-yl)methyl]-N-methylbenzamide] was tested. Which IC50 did it give?
A: 12.7 nM

Q: Which IC50 does the source give for CCCC1(c2ccccc2)NC(=N)N(Cc2cccc(C(=O)N(C)Cc3ccc(F)cc3)c2)C1=O (centres unmarked) [Example 43, N-(4-fluorobenzyl)-3-[(2-imino-5-oxo-4-phenyl-4-propylimidazolidin-1-yl)methyl]-N-methylbenzamide] here?
A: 28.7 nM

Q: Which IC50 does the source give for CC(C)CCC1(c2ccccc2)NC(=N)N(Cc2cccc(C(=O)N(C)Cc3ccc(Cl)cc3)c2)C1=O (centres unmarked) [Example 26, N-(4-chlorobenzyl)-3-{[2-imino-4-(3-methylbutyl)-5-oxo-4-phenylimidazolidin-1-yl]methyl}-N-methylbenzamide] here?
A: 13.9 nM

Q: Which IC50 does the source give for CC(C)CC1(c2ccccc2)NC(=N)N(Cc2cncc(C(=O)N(C)Cc3ccc(C#N)cc3)c2)C1=O (centres unmarked) [Example 84, N-(4-cyanobenzyl)-5-{[2-imino-4-(2-methylpropyl)-5-oxo-4-phenylimidazolidin-1-yl]methyl}-N-methylpyridine-3-carboxamide] here?
A: 93 nM

Q: With CN(Cc1cccc(S(C)(=O)=O)c1)C(=O)c1cccc(CN2C(=N)NC(c3ccc(F)cc3)(c3ccc(F)cc3)C2=O)c1 [Example 60, 3-{[4,4-bis(4-fluorophenyl)-2-imino-5-oxoimidazolidin-1-yl]methyl}-N-methyl-N-[3-(methylsulfonyl)benzyl]benzamide] as the compound, how does the IC50 read?
A: 69.2 nM

Q: With CC(C)CC1(c2ccccc2)NC(=N)N(Cc2ccc(C(F)(F)F)c(C(=O)NCc3ccc(C#N)cc3)c2)C1=O (centres unmarked) [Example 1, N-(4-cyanobenzyl)-5-{[2-imino-4-(2-methylpropyl)-5-oxo-4-phenylimidazolidin-1-yl]methyl}-2-(trifluoromethyl)benzamide] as the compound, how does the IC50 read?
A: 16 nM

Q: C[C@H](c1ccc(Cl)cc1)N(C)C(=O)c1cccc(CN2C(=N)NC(c3ccc(F)cc3)(c3ccc(F)cc3)C2=O)c1 [Example 41, 3-{[4,4-bis(4-fluorophenyl)-2-imino-5-oxoimidazolidin-1-yl]methyl}-N-[(1R)-1-(4-chlorophenyl)ethyl]-N-methylbenzamide] was tested. Which IC50 did it give?
A: 26.5 nM

Q: How did the IC50 turn out when CN(Cc1ccccc1Cl)C(=O)c1cccc(CN2C(=N)NC(c3ccc(F)cc3)(c3ccc(F)cc3)C2=O)c1 [Example 66, 3-{[4,4-bis(4-fluorophenyl)-2-imino-5-oxoimidazolidin-1-yl]methyl}-N-(2-chlorobenzyl)-N-methylbenzamide] was run?
A: 90.5 nM

Q: CN(C)C(=O)c1cccc(CN2C(=N)NC(c3ccccc3)(c3ccc(Br)cc3)C2=O)c1 (centres unmarked) [Example 62, 3-{[4-(4-bromophenyl)-2-imino-5-oxo-4-phenylimidazolidin-1-yl]methyl}-N,N-dimethylbenzamide] was tested. Which IC50 did it give?
A: 77.3 nM

Q: For CN(Cc1ccccc1C(F)(F)F)C(=O)c1cccc(CN2C(=N)NC(c3ccc(F)cc3)(c3ccc(F)cc3)C2=O)c1 [Example 46, 3-{[4,4-bis(4-fluorophenyl)-2-imino-5-oxoimidazolidin-1-yl]methyl}-N-methyl-N-[2-(trifluoromethyl)-benzyl]benzamide], which IC50 is on record?
A: 31.1 nM

Q: How did the IC50 turn out when CC(C)CC1(c2ccccc2)NC(=N)N(Cc2cc(C(=O)N(C)Cc3ccc(Cl)cc3)ccn2)C1=O (centres unmarked) [Example 91, N-(4-chlorobenzyl)-2-{[2-imino-4-(2-methylpropyl)-5-oxo-4-phenylimidazolidin-1-yl]methyl}-N-methylpyridine-4-carboxamide] was run?
A: 34.1 nM

Q: How did the IC50 turn out when N=C1NC(c2ccccc2)(c2ccccc2)C(=O)N1Cc1ccc(Cl)c(C(=O)NCc2cnccn2)c1 [Example 73, 2-chloro-5-[(2-imino-5-oxo-4,4-diphenylimidazolidin-1-yl)methyl]-N-(pyrazin-2-ylmethyl)benzamide] was run?
A: 11 nM

Q: Which IC50 does the source give for CN(Cc1ccc(F)cc1)C(=O)c1ccnc(CN2C(=N)NC(c3ccccc3)(c3ccccc3)C2=O)c1 [Example 90, N-(4-fluorobenzyl)-2-[(2-imino-5-oxo-4,4-diphenylimidazolidin-1-yl)methyl]-N-methylpyridine-4-carboxamide] here?
A: 24.6 nM

Q: With CN(Cc1ccccc1S(C)(=O)=O)C(=O)c1cc(CN2C(=N)NC(c3ccccc3)(c3ccccc3)C2=O)ccc1C(F)(F)F [Example 3, 5-[(2-imino-5-oxo-4,4-diphenylimidazolidin-1-yl)methyl]-N-methyl-N-[2-(methylsulfonyl)benzyl]-2-(trifluoromethyl)benzamide] as the compound, how does the IC50 read?
A: 22.3 nM

Q: For N=C1NC(c2ccccc2)(c2ccccc2)C(=O)N1Cc1ccc(C(F)(F)F)c(C(=O)NCc2ccccc2OC(F)F)c1 [Example 7, N-[2-(difluoromethoxy)benzyl]-5-[(2-imino-5-oxo-4,4-diphenylimidazolidin-1-yl)methyl]-2-(trifluoromethyl)benzamide], which IC50 is on record?
A: 52.4 nM

Q: For CCCC1(c2ccccc2)NC(=N)N(Cc2cccc(C(=O)N(C)Cc3ccc(Cl)cn3)c2)C1=O (centres unmarked) [Example 47, N-[(5-chloropyridin-2-yl)methyl]-3-[(2-imino-5-oxo-4-phenyl-4-propylimidazolidin-1-yl)methyl]-N-methylbenzamide], which IC50 is on record?
A: 33.3 nM

Q: For C[C@H](c1ccc(F)cc1)N(C)C(=O)c1cccc(CN2C(=N)NC(c3ccccc3)(c3ccccc3)C2=O)c1 [Example 20, N-[(1R)-1-(4-fluorophenyl)ethyl]-3-[(2-imino-5-oxo-4,4-diphenylimidazolidin-1-yl)methyl]-N-methylbenzamide], which IC50 is on record?
A: 11.7 nM

Q: How did the IC50 turn out when CC(C)CC1(c2ccccc2)NC(=N)N(Cc2ccc(Cl)c(C(=O)NCc3ccc(C#N)cc3)c2)C1=O (centres unmarked) [Example 71, 2-chloro-N-(4-cyanobenzyl)-5-{[2-imino-4-(2-methylpropyl)-5-oxo-4-phenylimidazolidin-1-yl]methyl}benzamide] was run?
A: 8.19 nM

Q: With CN(Cc1ccc(C#N)cc1)C(=O)c1cc(CN2C(=N)NC(c3ccccc3)(c3ccccc3)C2=O)ccc1C(F)(F)F [Example 2, N-(4-cyanobenzyl)-5-[(2-imino-5-oxo-4,4-diphenylimidazolidin-1-yl)methyl]-N-methyl-2-(trifluoromethyl)benzamide] as the compound, how does the IC50 read?
A: 18.2 nM
